The source of these data is BindingDB's records for doi:10.1021/jm970333f (University of Catania, 1998).

The nature of this test: Inhibition of [3H]pentazocine binding to sigma-1 sites in guinea pig brain membranes.
On to `C=CCN1CCC2c3cc(O)ccc3CC1C2C` (configuration not stated) [SK&F-10047], for which the Ki came out at 169 nM.

As to `CCN(CC)CCN1CC[C@@]2(C)c3cc(O)ccc3C[C@H]1[C@H]2C` [(2S,6R,11S)-3-(2-Diethylamino-ethyl)-6,11-dimethyl-1,2,3,4,5,6-hexahydro-2,6-methano-benzo[d]azocin-8-ol], the Ki was 15 nM. Against the preceding molecule, the Ki is about 11-fold lower.

With `C[C@@H]1[C@@H]2Cc3ccc(O)cc3[C@]1(C)CCN2CCNc1ccccc1` [(2S,6R,11S)-6,11-Dimethyl-3-(2-phenylamino-ethyl)-1,2,3,4,5,6-hexahydro-2,6-methano-benzo[d]azocin-8-ol], the Ki was 5.9 nM.

Molecule `C[C@@H]1[C@@H]2Cc3ccc(O)cc3[C@]1(C)CCN2CCNC1CCCCC1` [(2S,6R,11S)-3-(2-Cyclohexylamino-ethyl)-6,11-dimethyl-1,2,3,4,5,6-hexahydro-2,6-methano-benzo[d]azocin-8-ol] showed a Ki of 42 nM.

In turn, `C[C@@H]1[C@@H]2Cc3ccc(O)cc3[C@]1(C)CCN2CCN1CCCCC1` [(2S,6R,11S)-6,11-Dimethyl-3-(2-piperidin-1-yl-ethyl)-1,2,3,4,5,6-hexahydro-2,6-methano-benzo[d]azocin-8-ol] displayed a Ki of 9.6 nM.

`C[C@@H]1[C@@H]2Cc3ccc(O)cc3[C@]1(C)CCN2CCN1CCCCCC1` [(2S,6R,11S)-3-(2-Azepan-1-yl-ethyl)-6,11-dimethyl-1,2,3,4,5,6-hexahydro-2,6-methano-benzo[d]azocin-8-ol] showed a Ki of 20 nM.

As to `CCN(CCN1CC[C@@]2(C)c3cc(O)ccc3C[C@H]1[C@H]2C)c1ccccc1` [(2S,6R,11S)-3-[2-(Ethyl-phenyl-amino)-ethyl]-6,11-dimethyl-1,2,3,4,5,6-hexahydro-2,6-methano-benzo[d]azocin-8-ol], the Ki was 42 nM. This Ki is about 2.1-fold higher than that of the molecule before.

The molecule `C[C@@H]1[C@@H]2Cc3ccc(O)cc3[C@]1(C)CCN2CCNCc1ccccc1` [(2S,6R,11S)-3-(2-Benzylamino-ethyl)-6,11-dimethyl-1,2,3,4,5,6-hexahydro-2,6-methano-benzo[d]azocin-8-ol] showed a Ki of 30 nM.

In the case of `C[C@@H]1[C@@H]2Cc3ccc(O)cc3[C@]1(C)CCN2CCN(C)c1ccccc1` [(2S,6R,11S)-6,11-Dimethyl-3-[2-(methyl-phenyl-amino)-ethyl]-1,2,3,4,5,6-hexahydro-2,6-methano-benzo[d]azocin-8-ol], the Ki turned out to be 5.6 nM.

In turn, `C[C@@H]1[C@@H]2Cc3ccc(O)cc3[C@]1(C)CCN2CCN(C)C` [(2S,6R,11S)-3-(2-Dimethylamino-ethyl)-6,11-dimethyl-1,2,3,4,5,6-hexahydro-2,6-methano-benzo[d]azocin-8-ol] showed a Ki of 20 nM.

Regarding `C[C@@H]1[C@@H]2Cc3ccc(O)cc3[C@]1(C)CCN2CCN1CCCC1` [(2S,6R,11S)-6,11-Dimethyl-3-(2-pyrrolidin-1-yl-ethyl)-1,2,3,4,5,6-hexahydro-2,6-methano-benzo[d]azocin-8-ol], the Ki was 7.4 nM.

The molecule `C[C@@H]1[C@@H]2Cc3ccc(O)cc3[C@]1(C)CCN2CCN1CCOCC1` [(2S,6R,11S)-6,11-Dimethyl-3-(2-morpholin-4-yl-ethyl)-1,2,3,4,5,6-hexahydro-2,6-methano-benzo[d]azocin-8-ol] showed a Ki of 13 nM.
